Test results taken from article PMC11508334, “In Vitro Evaluation of New 5-Nitroindazolin-3-one Derivatives as Promising Agents against Trypanosoma cruzi” (International Journal of Molecular Sciences, 2024).

Legend:
[1] = Cyclic voltammetry, reduction of nitro group; format: physicochemical; conditions: for −EpaIII: anodic peak potential of couple IIIc/IIIa; for −EpaIII / −EpcIII / −E1/2: given with inverted sign, vs. Ag/AgCl electrode in DMSO; for −EpcIII: cathodic peak potential of couple IIIc/IIIa; for Ipa/Ipc: current ratio RNO2/RNO2•−, couple IIIc/IIIa, DMSO; for −E1/2: half-wave potential of couple IIIc/IIIa
Experimental: Cyclic Voltammetry (CV) was carried out using a Metrohm Autolab instrument model PGSTAT204, using dimethyl sulfoxide (DMSO) as the solvent (1 mM solutions), tetrabutylammonium perchlorate (0.1 M TBAP) as the supporting electrolyte, a hanging drop mercury electrode (HDME) as the working electrode, Ag/AgCl (3M KCl) as the reference electrode, and a graphite rod as the counter electrode. All measurements were performed after bubbling with nitrogen (N2) for 10 min.
Using Nicholson’s procedure, the Ipa/Ipc values (RNO2/RNO2^•−) were measured from each cyclic voltammogram with a scan rate between 0.1 and 2.5 V/s.

RAW 264.7 cells = experiment: Cytotoxicity MTT assay on RAW 264.7 cells; format: cell-based; conditions: Mus musculus, RAW264.7, in vitro cytotoxicity, murine RAW 264.7 macrophages
Experimental: The compounds under study, dissolved in dimethylsulfoxide (DMSO), were added to the culture media at 10–200 μM. RAW 264.7 cells were cultured in 96-well plates (5 × 10^4 cells per well), and 100 μL of 0.5 mg/mL MTT was added to each well. The DMSO final concentration was less than 0.1% v/v. After incubation for 4 h at 37 °C, the generated water-insoluble formazan dye was dissolved by adding 100 μL of 10% w/v sodium dodecyl sulfate (SDS) in 0.01 M HCl. The plates were further incubated overnight at 37 °C; […] 0.5% of Triton X-100 was added as a positive control. The plates were further incubated overnight at 37 °C, and the optical density of the wells was determined using a microplate reader (Asys Expert Plus©, Asys Hitachi, Vienna, Austria) at 570 nm. Under these conditions, the optical density is directly proportional to the viable cell number in each well. All experiments were performed at least thrice and data were reported as means and their standard deviations from triplicate cultures. Results are reported as IC50 regarding the control (uninfected cells in culture medium)

[2] = system: T. cruzi epimastigote stage (Dm28c strain); experiment: Epimastigotes viability study (MTT); format: cell-based, Trypanosoma cruzi; conditions: for SI Epimastigote: Selectivity Index IC50 macrophages RAW 264.7/IC50 epimastigotes Dm28c; for IC50: Trypanosoma cruzi, T. cruzi Dm28c epimastigotes, 24 h, MTT
Experimental: The trypanocidal activity was evaluated against the T. cruzi epimastigote stage (Dm28c strain). It was measured through the MTT assay using 0.22 mg/mL phenazine methosulfate (as an electron carrier). T. cruzi epimastigote from the author's collection (Programa de Farmacología Molecular y Clínica, Facultad de Medicina, Universidad de Chile, Santiago, Chile) were grown at 28 °C in liver infusion tryptase (LIT) medium, as reported earlier, but replacing blood with 4 μM hemin. […] fetal bovine serum (FBS) was added to a final concentration of 10% v/v. In this colorimetric assay for testing the trypanocidal activity, the compounds were dissolved in DMSO. They were added to 3 × 10^6 parasites/mL at 100 μM final concentrations in RPMI 1640 culture medium without phenol red for 24 h at 28 °C. The final concentration of DMSO was less than 0.1% v/v. […] The MTT assay, which was described previously, determined the viability of the epimastigotes.

Dm28c trypomastigotes = experiment: Trypomastigote viability study (MTT); format: cell-based, Trypanosoma cruzi; conditions: for IC50: Trypanosoma cruzi, T. cruzi Dm28c trypomastigotes, 24 h, MTT; for SI Trypomastigote: Selectivity Index IC50 macrophages RAW 264.7/IC50 trypomastigotes Dm28c
Experimental: Vero cells (ATCC CCL-81) were infected with Dm28c trypomastigotes at a 1:3 (cell: parasite) ratio. T. cruzi trypomastigotes were initially obtained from primary cultures of peritoneal macrophage from chagasic mice. […] Vero cell cultures were then infected with trypomastigotes and incubated at 37 °C in humidified air and 5% CO2 for 5–7 days. After that time, the culture medium was collected and centrifuged at 500× g for 5 min. The trypomastigote-containing pellet was re-suspended in RPMI 1640 supplemented with inactivated FBS and penicillin–streptomycin at a final 1 × 10^7 parasites/mL density. Trypomastigote viability assays were performed using the MTT reduction method as described previously. Then, 1 × 10^7 parasites/mL was incubated in RPMI 1640 with inactivated FBS at 37 °C for 24 h with or without the studied compounds.

SMILES	−EpaIII [1]	−EpcIII [1]	Ipa/Ipc [1]	−E1/2 [1]	IC50 (RAW 264.7 cells)	SI Epimastigote [2]	IC50 [2]	IC50 (Dm28c trypomastigotes)	melting point	SI Trypomastigote (Dm28c trypomastigotes)
CC(c1ccccc1)n1c(=O)c2cc([N+](=O)[O-])ccc2n1C (stereo not shown) [Compound 18, 1-Methyl-5-nitro-2-(1-phenylethyl)-1,2-dihydro-3H-indazol-3-one]	1.02 V	1.12 V	0.91	1.07 V	> 200 µM	>2.9	68.7 ± 1.7 µM	> 100 µM	155 to 157 °C	–
O=c1c2cc([N+](=O)[O-])ccc2[nH]n1-c1ccccc1 [Compound 4]	1.27 V	1.37 V	0.63	1.32 V	97.5 ± 1.2 µM	2.1	46.9 ± 3.4 µM	63.4 ± 1.4 µM	–	1.5
Cn1c2ccc([N+](=O)[O-])cc2c(=O)n1Cc1ccccc1C(F)(F)F [Compound 17, 1-Methyl-5-nitro-2-[2-(trifluoromethyl)benzyl]-1,2-dihydro-3H-indazol-3-one]	0.82 V	1.37 V	0.96	1.10 V	166 ± 2.3 µM	4.7	35.4 ± 1.1 µM	89.3 ± 1 µM	211 to 213 °C	1.9
Cn1c2ccc([N+](=O)[O-])cc2c(=O)n1Cc1cccc(F)c1 [Compound 7, 2-(3-Fluorobenzyl)-1-methyl-5-nitro-1,2-dihydro-3H-indazol-3-one]	0.98 V	1.20 V	1.00	1.09 V	95.1 ± 1.1 µM	3.2	29.5 ± 1.5 µM	41.2 ± 0.8 µM	125 to 127 °C	2.3
Cn1c2ccc([N+](=O)[O-])cc2c(=O)n1Cc1ccc(F)cc1 [Compound 8, 2-(4-Fluorobenzyl)-1-methyl-5-nitro-1,2-dihydro-3H-indazol-3-one]	0.99 V	1.14 V	1.00	1.07 V	116 ± 1.7 µM	3.2	36.4 ± 0.8 µM	57.8 ± 1.3 µM	139 to 141 °C	2.0
COc1nn(C)c2ccc([N+](=O)[O-])cc12 [Compound 23]	1.25 V	1.37 V	0.78	1.31 V	> 200 µM	–	> 100 µM	> 100 µM	–	–
Cn1c2ccc([N+](=O)[O-])cc2c(=O)n1Cc1ccccc1Cl [Compound 9, 2-(2-Chlorobenzyl)-1-methyl-5-nitro-1,2-dihydro-3H-indazol-3-one]	1.02 V	1.10 V	0.96	1.06 V	176 ± 2.3 µM	4.0	43.7 ± 2 µM	61.6 ± 1.4 µM	179 to 181 °C	2.8
Cn1nc(O)c2cc([N+](=O)[O-])ccc21 [Compound 19, 1-methyl-5-nitroindazol-3-ol]	1.28 V	1.35 V	0.65	1.32 V	> 200 µM	–	> 100 µM	> 100 µM	–	–
O=[N+]([O-])c1ccc2c(c1)c(O)nn2CCCCCO [Compound 20]	1.28 V	1.38 V	0.67	1.33 V	> 200 µM	–	> 100 µM	> 100 µM	–	–
CC1CS(=O)(=O)CCN1/N=C/c1ccc([N+](=O)[O-])o1 (stereo not shown) [NFX, nifurtimox, reference compound]	0.85 V	0.91 V	1.01	0.88 V	263.4 ± 2.2 µM	15.1	17.4 ± 1.3 µM	21.5 ± 1.4 µM	–	12.3
COc1ccc(Cn2c(=O)c3cc([N+](=O)[O-])ccc3n2C)cc1 [Compound 16, 2-(4-Methoxybenzyl)-1-methyl-5-nitro-1,2-dihydro-3H-indazol-3-one]	1.03 V	1.15 V	0.91	1.09 V	> 200 µM	–	> 100 µM	> 100 µM	139 to 141 °C	–
O=[N+]([O-])c1ccc2c(c1)c(O)nn2CCCCCCCl [Compound 21]	1.27 V	1.37 V	0.56	1.32 V	> 200 µM	>2.4	84.3 ± 2.1 µM	91.2 ± 2.2 µM	–	>2.1
Cn1c2ccc([N+](=O)[O-])cc2c(=O)n1Cc1ccccc1F [Compound 6]	0.94 V	1.22 V	0.99	1.08 V	83.9 ± 0.9 µM	2.6	32.9 ± 0.7 µM	56.4 ± 1.5 µM	–	1.5
O=C(Cn1ccnc1[N+](=O)[O-])NCc1ccccc1 [BNZ, benznidazole, reference compound]	0.93 V	1.08 V	0.98	1.00 V	–	–	–	–	–	–
